Assay results reported in patent publication US20100063085A1, “METHOD OF TREATING LEARNING IMPAIRMENT IN DOWN'S SYNDROME SUBJECTS” (University Court of The University of Dundee, priority 2008, published 2010).
Like-named read-outs stand apart in the source and are kept apart here.

Assays:
Format in all cases: biochemical
NEK2a = biological target: T1, NEK2a (Homo sapiens, UniProt P51955); assay: NEK2a 33P kinase assay; settings: read-out: NEK2a activity as percentage of control without inhibitor
T1 sequence (P51955 1-445): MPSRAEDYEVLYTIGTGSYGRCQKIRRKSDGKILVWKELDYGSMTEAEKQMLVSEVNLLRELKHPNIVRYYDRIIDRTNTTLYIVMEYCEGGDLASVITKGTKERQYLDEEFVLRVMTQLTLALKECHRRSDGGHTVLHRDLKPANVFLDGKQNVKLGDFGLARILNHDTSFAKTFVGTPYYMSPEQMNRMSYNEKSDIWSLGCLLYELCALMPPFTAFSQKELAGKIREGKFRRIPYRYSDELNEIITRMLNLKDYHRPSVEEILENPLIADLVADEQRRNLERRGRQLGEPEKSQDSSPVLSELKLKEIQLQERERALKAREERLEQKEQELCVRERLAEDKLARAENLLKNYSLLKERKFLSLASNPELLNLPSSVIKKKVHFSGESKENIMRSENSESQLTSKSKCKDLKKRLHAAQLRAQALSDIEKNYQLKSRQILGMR
Procedure: (§1) All assays (25.5 μl) were carried out at room temperature (21° C.) and were linear with respect to time and enzyme concentrations under the conditions used. Assays were performed for 30 minutes except assays for LCK and PKB which were performed for 15 minutes using Multidrop Micro reagent dispensers (Thermo Electron Corporation, Waltham, Mass. 02454, USA) in a 96-well format. The concentration of […] [γ-^33P] ATP (800 cpm/pmol) in the assays was one of three concentrations (5, 20 or 50 μM) in order to be at or below Km for ATP for the enzyme. Assays were initiated with MgATP and stopped by addition of 5 μl of 0.5M orthophosphoric acid. Assays were then harvested onto P81 filterplates using a unifilter harvester (PerkinElmer, Boston, Mass. 02118, USA), with a wash buffer of 50 mM orthophosphoric acid. Filterplates were then air dried overnight. 10 μl of Microscint O was added per well prior to counting for radioactivity.
5-20 mU of NEK2a (diluted in 50 mM Tris (pH 7.5), 0.1 mM EGTA, 1 mg/ml BSA, 0.1%, β-Mercaptoethanol) is assayed against NEK2a peptide ([…]) in a final volume of 25.5 μl containing 50 mM Tris (pH 7.5), 0.1 mM EGTA, 0.01% Brij, 0.1%, β-Mercaptoethanol, 300 μM NEK2a peptide, 10 mM magnesium acetate and 0.05 mM [^33P- γATP](500-1000 cpm/pmole) and incubated for 30 mins at room temperature.

SAPK4/p38d = biological target: T2, SAPK4/p38d (Homo sapiens, UniProt O15264); assay: SAPK4/p38d 33P kinase assay; settings: read-out: SAPK4/p38d activity as percentage of control without inhibitor
T2 sequence (O15264 1-365): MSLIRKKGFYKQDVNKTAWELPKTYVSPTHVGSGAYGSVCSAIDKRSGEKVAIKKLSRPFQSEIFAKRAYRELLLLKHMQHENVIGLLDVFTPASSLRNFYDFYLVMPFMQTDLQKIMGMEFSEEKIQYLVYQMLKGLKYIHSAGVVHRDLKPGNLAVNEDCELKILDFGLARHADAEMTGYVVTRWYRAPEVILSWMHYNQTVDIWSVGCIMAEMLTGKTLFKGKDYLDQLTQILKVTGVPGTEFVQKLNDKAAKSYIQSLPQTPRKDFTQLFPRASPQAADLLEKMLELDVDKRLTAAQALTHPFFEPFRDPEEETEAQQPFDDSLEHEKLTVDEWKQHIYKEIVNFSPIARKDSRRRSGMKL
Procedure: as §1
(§2) MKK1, JNK/SAPK1c, SAPK2a/p38, SAPK2b/p38β2, SAPK3/p38γ, SAPK4/p38δ, MAPK2/ERK2, MAPKAP-K1β, MAPKAP-K2, MSK1, PRAK, PKA, PKCα, PDK1, SGK, p70S6K, GSK3β, ROCK-II, PRK2, AMPK, CHK1, CHK2, CK2, PHK, LCK, were assayed according to Davies et al., (Davies, S. P., Reddy, H., Caivano, M. and Cohen, P. Biochem. J. 351, 95-105, 2000.
(§3) CSK and CDK2/cyclinA, were assayed according to Bain et al. (Bain J, McLauchlan H, Elliott M, Cohen P. Biochem J. 371, 199-204, 2003., except that ATP concentrations were either 5, 20 or 50 micromolar so that they were at or below the Km for ATP. The ATP concentrations used were as follows, 5 μM for assays of MKK1, SAPK3, SAPK4, GSK3β, PRK2 CK2 20 μm for assays of JNK, SAPK2β, MAPKAP-K2, MSK1, PRAK, PKA, […], PDK1, SGK, p70S6K, ROCK-II, CHK1, CHK2, CSK, CDK2, and 50 μM for assays of SAPK2a, MAPK2/ERK2, AMPK, LCK, PHK and MAPKAP-K1β.

ROCK-II = ROCK-II (Homo sapiens, UniProt O75116); assay: ROCK-II 33P kinase assay; settings: read-out: ROCK-II activity as percentage of control without inhibitor
ROCK-II, sequence (O75116 whole entry, species assumed): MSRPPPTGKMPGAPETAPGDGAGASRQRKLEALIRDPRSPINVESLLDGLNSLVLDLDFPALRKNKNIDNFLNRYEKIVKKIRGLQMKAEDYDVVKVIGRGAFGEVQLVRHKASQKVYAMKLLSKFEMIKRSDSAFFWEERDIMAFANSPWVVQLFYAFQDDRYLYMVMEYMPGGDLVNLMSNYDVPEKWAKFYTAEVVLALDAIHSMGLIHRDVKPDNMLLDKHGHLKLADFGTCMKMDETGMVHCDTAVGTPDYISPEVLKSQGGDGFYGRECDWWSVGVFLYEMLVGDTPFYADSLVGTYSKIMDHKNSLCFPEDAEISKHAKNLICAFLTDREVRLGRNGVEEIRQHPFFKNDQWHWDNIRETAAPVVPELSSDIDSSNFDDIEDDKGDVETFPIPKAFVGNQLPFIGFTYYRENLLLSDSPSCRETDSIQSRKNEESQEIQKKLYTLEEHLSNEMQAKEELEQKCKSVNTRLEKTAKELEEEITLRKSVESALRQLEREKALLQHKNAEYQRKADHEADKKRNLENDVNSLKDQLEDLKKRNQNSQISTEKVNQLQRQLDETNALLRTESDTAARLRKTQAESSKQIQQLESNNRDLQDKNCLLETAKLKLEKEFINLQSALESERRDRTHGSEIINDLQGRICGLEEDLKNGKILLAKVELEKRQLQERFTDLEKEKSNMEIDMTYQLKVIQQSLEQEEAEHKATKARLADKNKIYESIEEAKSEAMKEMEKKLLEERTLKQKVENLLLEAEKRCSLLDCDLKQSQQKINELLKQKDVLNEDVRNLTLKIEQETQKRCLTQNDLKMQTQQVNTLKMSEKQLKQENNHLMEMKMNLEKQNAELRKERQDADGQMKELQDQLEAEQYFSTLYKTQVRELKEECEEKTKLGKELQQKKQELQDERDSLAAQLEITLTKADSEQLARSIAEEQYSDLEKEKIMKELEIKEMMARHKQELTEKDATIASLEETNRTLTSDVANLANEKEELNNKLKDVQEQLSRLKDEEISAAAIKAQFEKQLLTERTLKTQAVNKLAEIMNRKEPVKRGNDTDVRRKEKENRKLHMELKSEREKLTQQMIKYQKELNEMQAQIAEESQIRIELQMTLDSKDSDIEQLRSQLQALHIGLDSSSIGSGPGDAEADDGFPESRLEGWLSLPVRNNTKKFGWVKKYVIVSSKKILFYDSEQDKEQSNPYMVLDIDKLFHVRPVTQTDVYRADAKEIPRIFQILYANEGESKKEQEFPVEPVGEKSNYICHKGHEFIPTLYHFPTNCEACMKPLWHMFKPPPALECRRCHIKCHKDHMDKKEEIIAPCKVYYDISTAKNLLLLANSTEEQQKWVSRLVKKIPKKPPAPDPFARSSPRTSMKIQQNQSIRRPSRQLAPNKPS
Procedure: as §1, §2, §3

p70 S6K = p70 S6K (Homo sapiens, UniProt P23443); assay: p70 S6K 33P kinase assay; settings: read-out: p70 S6K activity as percentage of control without inhibitor; for remaining activity at 1 µM: inhibitor 1 μM; for remaining activity at 10 µM: inhibitor 10 μM
p70 S6K, sequence (P23443 whole entry): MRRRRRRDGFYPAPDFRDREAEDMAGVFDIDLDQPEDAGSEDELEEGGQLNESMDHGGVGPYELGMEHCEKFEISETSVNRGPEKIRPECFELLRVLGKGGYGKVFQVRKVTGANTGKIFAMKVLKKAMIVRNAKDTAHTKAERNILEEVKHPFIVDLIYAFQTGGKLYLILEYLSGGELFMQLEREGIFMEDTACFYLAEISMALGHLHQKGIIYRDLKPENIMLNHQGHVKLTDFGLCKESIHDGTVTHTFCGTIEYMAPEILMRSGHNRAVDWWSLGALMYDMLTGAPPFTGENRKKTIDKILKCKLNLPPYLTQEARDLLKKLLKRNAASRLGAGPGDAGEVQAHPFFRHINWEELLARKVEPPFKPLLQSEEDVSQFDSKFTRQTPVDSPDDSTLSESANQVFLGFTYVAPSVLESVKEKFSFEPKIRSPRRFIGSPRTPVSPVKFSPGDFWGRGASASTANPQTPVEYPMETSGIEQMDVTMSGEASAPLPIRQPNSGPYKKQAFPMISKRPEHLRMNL
Procedure: as §1, §2, §3

| SMILES | remaining activity at 1 µM (NEK2a; inhibitor 1 μM) | remaining activity at 10 µM (NEK2a; inhibitor 10 μM) | remaining activity at 1 µM (SAPK4/p38d; inhibitor 1 μM) | remaining activity at 10 µM (SAPK4/p38d; inhibitor 10 μM) | remaining activity at 1 µM (ROCK-II; inhibitor 1 μM) | remaining activity at 10 µM (ROCK-II; inhibitor 10 μM) | remaining activity at 1 µM (p70 S6K) | remaining activity at 10 µM (p70 S6K) | remaining activity at 1 µM (NEK2a) | remaining activity at 10 µM (NEK2a) | remaining activity at 1 µM (SAPK4/p38d) | remaining activity at 10 µM (SAPK4/p38d) | remaining activity at 1 µM (ROCK-II) | remaining activity at 10 µM (ROCK-II) |
| --- | --- | --- | --- | --- | --- | --- | --- | --- | --- | --- | --- | --- | --- | --- |
| COc1ccc2c3c([nH]c2c1)C(C)=NCC3 [Harmaline] | 69% | 109% | 76% | 113% | 99% | 81% | 71% | 83% | – | – | – | – | – | – |
| CC1=NCCc2c1[nH]c1cc(O)ccc21 [Harmalol] | 104% | 83% | 101% | 93% | 96% | 81% | 95% | 69% | – | – | – | – | – | – |
| COc1ccc2c(c1)[nH]c1c(C)nccc12 [Harmine] | – | – | – | – | – | – | 90% | 93% | 106% | 111% | 96% | 82% | 84% | 61% |
